According to patent US20150105252A1, “SUBSTITUTED PYRAZOLES AS HERBICIDES” (E I DU PONT DE NEMOURS AND COMPANY, priority 2013, published 2015):

Experiments:
crabgrass, naked = assay: Test E preemergence; format: in vivo, Digitaria nuda; settings: 21 days, scale 0 to 100
Text: (§1) Seeds of plant species selected from bermudagrass (Cynodon dactylon), Surinam grass (Brachiaria decumbens), crabgrass, large (large crabgrass, Digitaria sanguinalis), crabgrass, naked (naked crabgrass, Digitaria nuda), foxtail, green (green foxtail, Setaria viridis), johnsongrass (Sorghum halepense), kochia (Kochia scoparia), morningglory (pitted morningglory, Ipomoea lacunosa), nutsedge, purple (purple nutsedge, Cyperus rotundus), ragweed (common ragweed, Ambrosia elation), mustard, black (black mustard, Brassica nigra), guineagrass (Panicum maximum), dallisgrass (Paspalum dilatatum), barnyardgrass (Echinochloa crus-galli), sandbur (southern sandbur, Cenchrus echinatus), sowthistle (common sowthistle, Sonchus oleraceous), ryegrass, Italian (Italian ryegrass, Lolium multiflorum), signalgrass (broadleaf signalgrass, Brachiaria platyphylla), dayflower, VA (Virginia (VA) dayflower, Commelina virginica), bluegrass (annual bluegrass, Poa annua), quackgrass (Elytrigia repens), mallow (common mallow, Malva sylvestris), buckwheat, wild (wild buckwheat, Polygonum convolvulus), leafy spurge (Euphorbia esula), common chickweed (Stellaria media), wild poinsettia (Euphorbia heterophylla), pigweed, palmer (palmer pigweed, Amaranthus palmeri), and pigweed (redroot pigweed, Amaranthus retroflexus) were planted into a blend of loam soil and sand and treated preemergence with test chemicals formulated in a non-phytotoxic solvent mixture which included a surfactant.
(§2) Treated plants and controls were maintained in a greenhouse for 21 days, after which time all species were compared to controls and visually evaluated. Plant response ratings, summarized in Table E, are based on a scale of 0 to 100 where 0 is no effect and 100 is complete control. A dash (-) response means no test result.

foxtail, green = assay: Test D postemergence; format: in vivo, Setaria viridis; settings: scale 0 to 100
Procedure, shortened: (§3)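 Visual 0-100 rating (100 = complete control) against untreated plants, made 14 to 21 days after treatment in a controlled environment. Compounds, formulated with surfactant in non-phytotoxic solvent, were applied either to seeds just sown in silt loam or to 1- to 4-leaf plants (2 to 18 cm) grown in peat-based medium.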

galium = assay: Test D preemergence; format: in vivo, Galium aparine; settings: scale 0 to 100
Procedure, shortened: as §3

common chickweed = assay: Test E preemergence; format: in vivo, Stellaria media; settings: 21 days, scale 0 to 100
Text: as §1, §2

lambsquarters = assay: Test D postemergence; format: in vivo, Chenopodium album; settings: scale 0 to 100
Procedure, shortened: as §3

corn = assay: Test F preemergence; format: in vivo, Zea mays
Procedure, shortened: (§4)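 Visual injury was scored from 0 (none) to 100 (complete control) relative to untreated controls after 14–21 days in a greenhouse. Before that, formulated compound (solvent plus surfactant) was sprayed either on silt-loam soil right after sowing or on emerged plants at the 1–4-leaf stage, 2–18 cm tall.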

Surinam grass = assay: Test F preemergence; format: in vivo, Brachiaria decumbens
Procedure, shortened: as §4

soybean = assay: Test F preemergence; format: in vivo, Glycine max
Procedure, shortened: as §4

[1] = Preemergence, 31 g ai/ha, scale 0 to 100
[2] = Preemergence, 62 g ai/ha, scale 0 to 100
[3] = Preemergence, 125 g ai/ha, scale 0 to 100
[4] = preemergence, 8 g ai/ha, scale 0 to 100, 100 is complete control
[5] = preemergence, 16 g ai/ha, scale 0 to 100, 100 is complete control

Row | Structure (SMILES) | Plant response rating, Crabgrass, Naked (crabgrass, naked; 16 g ai/ha) | Plant response rating, Crabgrass, Naked (crabgrass, naked; 31 g ai/ha) | Plant response rating, Crabgrass, Naked (crabgrass, naked; 62 g ai/ha) | Plant response rating, Crabgrass, Naked (crabgrass, naked; 125 g ai/ha) | Plant response rating, Crabgrass, Naked (crabgrass, naked; 250 g ai/ha) | Foxtail, Green plant response rating (foxtail, green; Postemergence, 31 g ai/ha) | Foxtail, Green plant response rating (foxtail, green; Postemergence, 125 g ai/ha) | Foxtail, Green plant response rating (foxtail, green; Postemergence, 250 g ai/ha) | Foxtail, Green plant response rating (foxtail, green; postemergence, 62 g ai/ha) | Plant response rating, Galium (galium; 31 g ai/ha) | Plant response rating, Galium (galium; 62 g ai/ha) | Plant response rating, Galium (galium; 125 g ai/ha) | Plant response rating, Galium (galium; 250 g ai/ha) | Plant response rating, Common Chickweed (common chickweed; 16 g ai/ha) | Plant response rating, Common Chickweed (common chickweed; 31 g ai/ha) | Plant response rating, Common Chickweed (common chickweed; 62 g ai/ha) | Plant response rating, Common Chickweed (common chickweed; 125 g ai/ha) | Plant response rating, Common Chickweed (common chickweed; 250 g ai/ha) | Lambsquarters plant response rating (lambsquarters; Postemergence, 31 g ai/ha) | Lambsquarters plant response rating (lambsquarters; Postemergence, 125 g ai/ha) | further results
1 | CCc1cc(C(=O)NC(C)C)nn1Cc1ccnc(C(F)(F)F)c1 [Compound 103] | 100 | 100 | 100 | 100 | 100 | 30 | 35 | 65 | 20 | 50 | 100 | 100 | 100 | 98 | 100 | 100 | 100 | 100 | 35 | 40 | Lambsquarters plant response rating (lambsquarters; Postemergence, 250 g ai/ha): 60; Lambsquarters plant response rating (lambsquarters; postemergence, 62 g ai/ha): 30
2 | CCCc1cc(C(=O)NCC(F)(F)F)nn1Cc1ccnc(C(F)(F)F)c1 [Compound 105] | 90 | 100 | 100 | 100 | 100 | 10 | 70 | 80 | 65 | 100 | 100 | 100 | 100 | 98 | 100 | 100 | 100 | 100 | 40 | 70 | Plant response rating, Corn (corn; [1]): 40; Plant response rating, Corn (corn; [2]): 40; Plant response rating, Corn (corn; [3]): 60; Plant response rating, Corn (corn; [4]): 20; Plant response rating, Corn (corn; [5]): 30; Plant response rating, Surinam Grass (Surinam grass; [1]): 10; Plant response rating, Surinam Grass (Surinam grass; [2]): 35; Plant response rating, Surinam Grass (Surinam grass; [3]): 40; Plant response rating, Surinam Grass (Surinam grass; [4]): 0; Plant response rating, Surinam Grass (Surinam grass; [5]): 10; Plant response rating, Soybean (soybean; [1]): 100; Plant response rating, Soybean (soybean; [2]): 80; Plant response rating, Soybean (soybean; [3]): 100; Plant response rating, Soybean (soybean; [4]): 0; Plant response rating, Soybean (soybean; [5]): 0; Lambsquarters plant response rating (lambsquarters; Postemergence, 250 g ai/ha): 80; Lambsquarters plant response rating (lambsquarters; postemergence, 62 g ai/ha): 65
